Source: PubChem BioAssay AID1745844 (Carcinogenic Potency Database (CPDB), 2022)

Test system: rodent lifetime carcinogenesis bioassay, tumor incidence TD50
Test: chronic cancer bioassays in animals – CPDB, compiled studies (AID 1745844)
Conditions: mouse, strain B6C3F1, males, inhaled

`C=CC=C` showed a TD50 (site: all sites, lesion: malignant lymphoma, mixed type + malignant lymphoma, lymphocytic type + malignant lymphoma, dosed 26 weeks, study length 104 weeks) of 31.3 mg/kg/day, a TD50 (site: all sites, lesion: malignant lymphoma, mixed type + malignant lymphoma, lymphocytic type + malignant lymphoma, dosed 40 weeks, study length 104 weeks) of 108 mg/kg/day and a TD50 (site: all sites, lesion: malignant lymphoma, mixed type + malignant lymphoma, lymphocytic type + malignant lymphoma, dosed 52 weeks, study length 104 weeks) of 46.4 mg/kg/day. The TD50 (site: all sites, lesion: malignant lymphoma, mixed type + malignant lymphoma, dosed 13 weeks, study length 104 weeks) was 78.1 mg/kg/day, the TD50 (site: all sites, lesion: malignant lymphoma, mixed type + malignant lymphoma, dosed 26 weeks, study length 104 weeks) was 111 mg/kg/day and the TD50 (site: all sites, lesion: malignant lymphoma, mixed type + malignant lymphoma, dosed 40 weeks, study length 104 weeks) was 487 mg/kg/day. It also gave a TD50 (site: all sites, lesion: malignant lymphoma, mixed type + malignant lymphoma, dosed 52 weeks, study length 104 weeks) of 76.2 mg/kg/day, a TD50 (site: any site (literature study), lesion: several types, types named in the paper, dosed 13 weeks, study length 104 weeks) of 6.92 mg/kg/day and a TD50 (site: any site (literature study), lesion: several types, types named in the paper, dosed 26 weeks, study length 104 weeks) of 12.5 mg/kg/day. It also gave a TD50 (site: any site (literature study), lesion: several types, types named in the paper, dosed 40 weeks, study length 104 weeks) of 10.8 mg/kg/day, a TD50 (site: any site (literature study), lesion: several types, types named in the paper, dosed 52 weeks, study length 104 weeks) of 5.84 mg/kg/day and a TD50 (site: any site (literature study), lesion: several types, types named in the paper, dosed 60 weeks, study length 60 weeks) of 28.8 mg/kg/day. For the same molecule, the TD50 (site: any site (literature study), lesion: several types, types named in the paper, dosed 82 weeks, study length 104 weeks) was 10.5 mg/kg/day, the TD50 (site: brain, lesion: olfactory lobe, glioma malignant, dosed 13 weeks, study length 104 weeks) was 230 mg/kg/day and the TD50 (site: brain, lesion: olfactory lobe, glioma malignant, dosed 26 weeks, study length 104 weeks) was 403 mg/kg/day. The TD50 (site: brain, lesion: olfactory lobe, neuroblastoma malignant, dosed 13 weeks, study length 104 weeks) was 394 mg/kg/day, the TD50 (site: forestomach, lesion: papilloma, NOS + squamous-cell carcinoma + squamous-cell papilloma, dosed 60 weeks, study length 60 weeks) was 120 mg/kg/day and the TD50 (site: forestomach, lesion: papilloma, NOS + squamous-cell papilloma, dosed 60 weeks, study length 60 weeks) was 140 mg/kg/day. It also gave a TD50 (site: forestomach, lesion: squamous-cell carcinoma + squamous-cell papilloma, dosed 13 weeks, study length 104 weeks) of 44.8 mg/kg/day, a TD50 (site: forestomach, lesion: squamous-cell carcinoma + squamous-cell papilloma, dosed 26 weeks, study length 104 weeks) of 91.4 mg/kg/day and a TD50 (site: forestomach, lesion: squamous-cell carcinoma + squamous-cell papilloma, dosed 40 weeks, study length 104 weeks) of 171 mg/kg/day. The TD50 (site: forestomach, lesion: squamous-cell carcinoma + squamous-cell papilloma, dosed 52 weeks, study length 104 weeks) was 42.8 mg/kg/day, the TD50 (site: forestomach, lesion: squamous-cell carcinoma + squamous-cell papilloma, dosed 60 weeks, study length 60 weeks) was 557 mg/kg/day and the TD50 (site: forestomach, lesion: squamous-cell carcinoma + squamous-cell papilloma, dosed 82 weeks, study length 104 weeks) was 197 mg/kg/day. It also gave a TD50 (site: forestomach, lesion: squamous-cell carcinoma, dosed 13 weeks, study length 104 weeks) of 43.4 mg/kg/day, a TD50 (site: forestomach, lesion: squamous-cell carcinoma, dosed 26 weeks, study length 104 weeks) of 136 mg/kg/day and a TD50 (site: forestomach, lesion: squamous-cell carcinoma, dosed 52 weeks, study length 104 weeks) of 154 mg/kg/day. For the same molecule, the TD50 (site: forestomach, lesion: squamous-cell papilloma, dosed 13 weeks, study length 104 weeks) was 117 mg/kg/day, the TD50 (site: forestomach, lesion: squamous-cell papilloma, dosed 26 weeks, study length 104 weeks) was 284 mg/kg/day and the TD50 (site: forestomach, lesion: squamous-cell papilloma, dosed 40 weeks, study length 104 weeks) was 171 mg/kg/day. For the same molecule, the TD50 (site: forestomach, lesion: squamous-cell papilloma, dosed 52 weeks, study length 104 weeks) was 77.7 mg/kg/day, the TD50 (site: forestomach, lesion: squamous-cell papilloma, dosed 82 weeks, study length 104 weeks) was 230 mg/kg/day and the TD50 (site: heart + peritoneal cavity, lesion: hemangiosarcoma, dosed 60 weeks, study length 60 weeks) was 96.7 mg/kg/day. The TD50 (site: heart, lesion: hemangiosarcoma, dosed 13 weeks, study length 104 weeks) was 32.6 mg/kg/day, the TD50 (site: heart, lesion: hemangiosarcoma, dosed 26 weeks, study length 104 weeks) was 18.5 mg/kg/day and the TD50 (site: heart, lesion: hemangiosarcoma, dosed 40 weeks, study length 104 weeks) was 21.9 mg/kg/day. For the same molecule, the TD50 (site: heart, lesion: hemangiosarcoma, dosed 52 weeks, study length 104 weeks) was 13.9 mg/kg/day, the TD50 (site: heart, lesion: hemangiosarcoma, dosed 60 weeks, study length 60 weeks) was 96.7 mg/kg/day and the TD50 (site: heart, lesion: hemangiosarcoma, dosed 82 weeks, study length 104 weeks) was 64.8 mg/kg/day. It also gave a TD50 (site: jejunum, lesion: carcinoma, dosed 82 weeks, study length 104 weeks) of 310 mg/kg/day, a TD50 (site: kidney, lesion: adenoma + tubule adenoma, dosed 52 weeks, study length 104 weeks) of 190 mg/kg/day and a TD50 (site: kidney, lesion: tubule adenoma, dosed 13 weeks, study length 104 weeks) of 201 mg/kg/day. For the same molecule, the TD50 (site: kidney, lesion: tubule adenoma, dosed 26 weeks, study length 104 weeks) was 961 mg/kg/day, the TD50 (site: kidney, lesion: tubule adenoma, dosed 40 weeks, study length 104 weeks) was 161 mg/kg/day and the TD50 (site: kidney, lesion: tubule adenoma, dosed 82 weeks, study length 104 weeks) was 268 mg/kg/day. The TD50 (site: liver, lesion: hepatoblastoma + hepatocellular carcinoma, dosed 13 weeks, study length 104 weeks) was 23.4 mg/kg/day, the TD50 (site: liver, lesion: hepatoblastoma + hepatocellular carcinoma, dosed 26 weeks, study length 104 weeks) was 60 mg/kg/day and the TD50 (site: liver, lesion: hepatoblastoma + hepatocellular carcinoma, dosed 52 weeks, study length 104 weeks) was 41.4 mg/kg/day. For the same molecule, the TD50 (site: liver, lesion: hepatocellular adenoma + hepatoblastoma + hepatocellular carcinoma, dosed 13 weeks, study length 104 weeks) was 15.1 mg/kg/day, the TD50 (site: liver, lesion: hepatocellular adenoma + hepatoblastoma + hepatocellular carcinoma, dosed 26 weeks, study length 104 weeks) was 23.8 mg/kg/day and the TD50 (site: liver, lesion: hepatocellular adenoma + hepatoblastoma + hepatocellular carcinoma, dosed 52 weeks, study length 104 weeks) was 13.8 mg/kg/day. It also gave a TD50 (site: liver, lesion: hepatocellular adenoma + hepatocellular carcinoma + neoplastic nodule, dosed 13 weeks, study length 104 weeks) of 15.1 mg/kg/day, a TD50 (site: liver, lesion: hepatocellular adenoma + hepatocellular carcinoma + neoplastic nodule, dosed 26 weeks, study length 104 weeks) of 23.8 mg/kg/day and a TD50 (site: liver, lesion: hepatocellular adenoma + hepatocellular carcinoma + neoplastic nodule, dosed 40 weeks, study length 104 weeks) of 16.8 mg/kg/day. For the same molecule, the TD50 (site: liver, lesion: hepatocellular adenoma + hepatocellular carcinoma + neoplastic nodule, dosed 52 weeks, study length 104 weeks) was 14.6 mg/kg/day.
